Laboratory results as given in PubChem BioAssay AID1845211 (Molecular Pharmacology Branch, DTP, NCI, 2023).
Where “and” joins values, the source holds several entries; their conditions need not be identical. Equal values may be shown once.

Test system: NCI-H322M multicellular tumor spheroids, viability (% test/control)
Experiment: Anticancer human tumor NCI-H322M cell line growth inhibition;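 on viability, T/C: spheroids exposed to compound for seven days before readout; 100% = DMSO vehicle control wells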
Details: for viability, T/C: stronger effect = lower value
Procedure, shortened: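 Complex spheroids of malignant cells with endothelial cells and mesenchymal stem cells; agents alone or combined, from near clinical Cmax (or 10 microM if unknown) down in half-log steps, 0.25% DMSO final.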

[1] = curve of first compound, second compound 0.003 µM
[2] = second compound 0.003 µM, first compound 0.0316 µM
[3] = second compound 0.003 µM, first compound 0.1 µM
[4] = second compound 0.003 µM, first compound 0.316 µM
[5] = second compound 0.003 µM, first compound 1 µM
[6] = second compound 0.003 µM, first compound 3.16 µM
[7] = second compound 0.003 µM, first compound 10 µM

## COc1ccc([C@@H](O)c2cc(-c3ncnc4cc(N5CCOCC5)ccc34)c(F)cc2Cl)nn1 + COc1cc2c(cc1O)CCNC21CSC2c3c(OC(C)=O)c(C)c4c(c3C(COC1=O)N1C(O)C3Cc5cc(C)c(OC)c(O)c5C(C21)N3C)OCO4
Curve of first compound, second compound 30 pM
  IC50: 2340 nM
Curve of first compound, second compound 94.9 pM
  IC50: 1640 nM
Curve of first compound, second compound 0.0003 µM
  IC50: 1400 nM
Curve of first compound, second compound 0.000949 µM
  IC50: 433 nM
[1]
  IC50: < 31.6 nM
Second compound 30 pM, first compound 0.0316 µM
  viability, T/C: 101%
Second compound 30 pM, first compound 0.1 µM
  viability, T/C: 75.9%
Second compound 30 pM, first compound 0.316 µM
  viability, T/C: 79.1%
Second compound 30 pM, first compound 1 µM
  viability, T/C: 62.1%
Second compound 30 pM, first compound 3.16 µM
  viability, T/C: 45.3%
Second compound 30 pM, first compound 10 µM
  viability, T/C: 30.4%
Second compound 94.9 pM, first compound 0.0316 µM
  viability, T/C: 96%
Second compound 94.9 pM, first compound 0.1 µM
  viability, T/C: 89.1%
Second compound 94.9 pM, first compound 0.316 µM
  viability, T/C: 82.2%
Second compound 94.9 pM, first compound 1 µM
  viability, T/C: 55.8%
Second compound 94.9 pM, first compound 3.16 µM
  viability, T/C: 41.5%
Second compound 94.9 pM, first compound 10 µM
  viability, T/C: 32%
Second compound 0.0003 µM, first compound 0.0316 µM
  viability, T/C: 106%
Second compound 0.0003 µM, first compound 0.1 µM
  viability, T/C: 94.1%
Second compound 0.0003 µM, first compound 0.316 µM
  viability, T/C: 71.1%
Second compound 0.0003 µM, first compound 1 µM
  viability, T/C: 56.4%
Second compound 0.0003 µM, first compound 3.16 µM
  viability, T/C: 38.2%
Second compound 0.0003 µM, first compound 10 µM
  viability, T/C: 26.8%
Second compound 0.000949 µM, first compound 0.0316 µM
  viability, T/C: 84.2%
Second compound 0.000949 µM, first compound 0.1 µM
  viability, T/C: 75.7%
Second compound 0.000949 µM, first compound 0.316 µM
  viability, T/C: 58.7%
Second compound 0.000949 µM, first compound 1 µM
  viability, T/C: 28.3%
Second compound 0.000949 µM, first compound 3.16 µM
  viability, T/C: 5.57%
Second compound 0.000949 µM, first compound 10 µM
  viability, T/C: 2.25%
[2]
  viability, T/C: 3.77%
[3]
  viability, T/C: 3.3%
[4]
  viability, T/C: 5.4%
[5]
  viability, T/C: 1.15%
[6]
  viability, T/C: 1.98%
[7]
  viability, T/C: 2.69%

## COc1ccc([C@@H](O)c2cc(-c3ncnc4cc(N5CCOCC5)ccc34)c(F)cc2Cl)nn1
Compound 0.0316 µM
  viability, T/C: 94.5% and 86.9% and 89%
Compound 0.1 µM
  viability, T/C: 82% and 74.6% and 84.6%
Compound 0.316 µM
  viability, T/C: 79.5% and 68% and 94.4%
Compound 1 µM
  viability, T/C: 61.6% and 63.9% and 62.2%
Compound 3.16 µM
  viability, T/C: 38.2% and 58.7% and 52.9%
Compound 10 µM
  viability, T/C: 33.5% and 34.7% and 43.3%
Curve of compound
  IC50: 1820 nM and 3810 nM and 2700 nM

## COc1ccc([C@@H](O)c2cc(-c3ncnc4cc(N5CCOCC5)ccc34)c(F)cc2Cl)nn1 + CC[C@@]1(O)C(=O)OCc2c1cc1n(c2=O)Cc2cc3c(CN(C)C)c(O)ccc3nc2-1
[1]
  IC50: 1670 nM
Curve of first compound, second compound 0.00949 µM
  IC50: 1360 nM
Curve of first compound, second compound 0.03 µM
  IC50: 1050 nM
Curve of first compound, second compound 0.0949 µM
  IC50: 721 nM
Curve of first compound, second compound 0.3 µM
  IC50: 384 nM
[2]
  viability, T/C: 79.4%
[3]
  viability, T/C: 88.7%
[4]
  viability, T/C: 91.2%
[5]
  viability, T/C: 59.2%
[6]
  viability, T/C: 45%
[7]
  viability, T/C: 32.2%
Second compound 0.00949 µM, first compound 0.0316 µM
  viability, T/C: 80.8%
Second compound 0.00949 µM, first compound 0.1 µM
  viability, T/C: 75.8%
Second compound 0.00949 µM, first compound 0.316 µM
  viability, T/C: 79.7%
Second compound 0.00949 µM, first compound 1 µM
  viability, T/C: 52.5%
Second compound 0.00949 µM, first compound 3.16 µM
  viability, T/C: 45.4%
Second compound 0.00949 µM, first compound 10 µM
  viability, T/C: 32.2%
Second compound 0.03 µM, first compound 0.0316 µM
  viability, T/C: 72.5%
Second compound 0.03 µM, first compound 0.1 µM
  viability, T/C: 80.1%
Second compound 0.03 µM, first compound 0.316 µM
  viability, T/C: 61.8%
Second compound 0.03 µM, first compound 1 µM
  viability, T/C: 51.8%
Second compound 0.03 µM, first compound 3.16 µM
  viability, T/C: 37.2%
Second compound 0.03 µM, first compound 10 µM
  viability, T/C: 30.2%
Second compound 0.0949 µM, first compound 0.0316 µM
  viability, T/C: 76.5%
Second compound 0.0949 µM, first compound 0.1 µM
  viability, T/C: 61.7%
Second compound 0.0949 µM, first compound 0.316 µM
  viability, T/C: 61.9%
Second compound 0.0949 µM, first compound 1 µM
  viability, T/C: 46.3%
Second compound 0.0949 µM, first compound 3.16 µM
  viability, T/C: 36.1%
Second compound 0.0949 µM, first compound 10 µM
  viability, T/C: 29.8%
Second compound 0.3 µM, first compound 0.0316 µM
  viability, T/C: 56.4%
Second compound 0.3 µM, first compound 0.1 µM
  viability, T/C: 54.4%
Second compound 0.3 µM, first compound 0.316 µM
  viability, T/C: 52.7%
Second compound 0.3 µM, first compound 1 µM
  viability, T/C: 37.6%
Second compound 0.3 µM, first compound 3.16 µM
  viability, T/C: 26%
Second compound 0.3 µM, first compound 10 µM
  viability, T/C: 24.4%

## COc1cc2c(cc1O)CCNC21CSC2c3c(OC(C)=O)c(C)c4c(c3C(COC1=O)N1C(O)C3Cc5cc(C)c(OC)c(O)c5C(C21)N3C)OCO4 (stereo not drawn)
Compound 94.9 pM
  viability, T/C: 90.7% [middle of 10 runs]
Compound 0.0003 µM
  viability, T/C: 90.7% [middle of 10 runs]
Compound 0.003 µM
  viability, T/C: 7.2% [middle of 10 runs]
Compound alone, run of 12/12/2019
  IC50: 1.56 nM [middle of 8 runs]

## CNCc1ccc(-c2cc(-c3nc(-c4ccc(S(=O)(=O)C(C)C)cc4)cnc3N)on2)cc1
Compound 0.00949 µM
  viability, T/C: 101% and 98.9% and 108%
Compound 0.03 µM
  viability, T/C: 92% and 104% and 77.6%
Compound 0.0949 µM
  viability, T/C: 86.2% and 90.6% and 82.5%
Compound 0.3 µM
  viability, T/C: 75.3% and 82.6% and 88.2%
Compound 0.949 µM
  viability, T/C: 93% and 95.4% and 77.4%
Compound 3 µM
  viability, T/C: 90.5% and 94.3% and 74.9%
Curve of compound
  IC50: > 3000 nM

## Cc1cc(C)c(CNC(=O)c2cc(-c3ccc(CN4CCOCC4)cc3)cc3c2cnn3C2CCCC2)c(=O)[nH]1 + Cn1nnc2c(C(N)=O)ncn2c1=O
Curve of first compound, second compound 1 µM
  IC50: > 10000 nM
Curve of first compound, second compound 3.16 µM
  IC50: > 10000 nM
Curve of first compound, second compound 10 µM
  IC50: > 10000 nM
Curve of first compound, second compound 31.6 µM
  IC50: > 10000 nM
Curve of first compound, second compound 100 µM
  IC50: > 10000 nM
Second compound 1 µM, first compound 0.0316 µM
  viability, T/C: 99.7%
Second compound 1 µM, first compound 0.1 µM
  viability, T/C: 101%
Second compound 1 µM, first compound 0.316 µM
  viability, T/C: 98.5%
Second compound 1 µM, first compound 1 µM
  viability, T/C: 94.3%
Second compound 1 µM, first compound 3.16 µM
  viability, T/C: 133%
Second compound 1 µM, first compound 10 µM
  viability, T/C: 95.5%
Second compound 3.16 µM, first compound 0.0316 µM
  viability, T/C: 78%
Second compound 3.16 µM, first compound 0.1 µM
  viability, T/C: 102%
Second compound 3.16 µM, first compound 0.316 µM
  viability, T/C: 103%
Second compound 3.16 µM, first compound 1 µM
  viability, T/C: 81.3%
Second compound 3.16 µM, first compound 3.16 µM
  viability, T/C: 107%
Second compound 3.16 µM, first compound 10 µM
  viability, T/C: 118%
Second compound 10 µM, first compound 0.0316 µM
  viability, T/C: 92.2%
Second compound 10 µM, first compound 0.1 µM
  viability, T/C: 94.3%
Second compound 10 µM, first compound 0.316 µM
  viability, T/C: 105%
Second compound 10 µM, first compound 1 µM
  viability, T/C: 106%
Second compound 10 µM, first compound 3.16 µM
  viability, T/C: 101%
Second compound 10 µM, first compound 10 µM
  viability, T/C: 119%
Second compound 31.6 µM, first compound 0.0316 µM
  viability, T/C: 101%
Second compound 31.6 µM, first compound 0.1 µM
  viability, T/C: 95%
Second compound 31.6 µM, first compound 0.316 µM
  viability, T/C: 103%
Second compound 31.6 µM, first compound 1 µM
  viability, T/C: 104%
Second compound 31.6 µM, first compound 3.16 µM
  viability, T/C: 104%
Second compound 31.6 µM, first compound 10 µM
  viability, T/C: 122%
Second compound 100 µM, first compound 0.0316 µM
  viability, T/C: 105%
Second compound 100 µM, first compound 0.1 µM
  viability, T/C: 100%
Second compound 100 µM, first compound 0.316 µM
  viability, T/C: 113%
Second compound 100 µM, first compound 1 µM
  viability, T/C: 96.8%
Second compound 100 µM, first compound 3.16 µM
  viability, T/C: 105%
Second compound 100 µM, first compound 10 µM
  viability, T/C: 123%
